Data taken from the supplement of paper PMC4862054.

system: BT-549; assay: normalised viability (% of control), CellTiter-Blue; higher = more viable cells (about 100 = DMSO control); settings: 1 nM; incubation time: 72 h
In short: (§1)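 Normalised viability is given for a single listed concentration of the series. In 384-well plates, breast cancer cell lines were incubated 72 h with compound, then read with CellTiter-Blue (2 h, 37 °C) at 560/590 nm. Per-plate scaling set vehicle to 100 and a positive kill control to 0, with Z'-factor quality control.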

SMILES | normalised viability
CC(C)C[C@H](NC(=O)[C@H](Cc1ccccc1)NC(=O)c1cnccn1)B(O)O [Bortezomib] | 99.8%
Cn1cnc2c(F)c(Nc3ccc(Br)cc3F)c(C(=O)NOCCO)cc21 [MEK-162] | 100%

same assay, conditions: 10 nM; incubation time: 72 h

SMILES | normalised viability
O=c1[nH]c(=O)n([C@H]2C[C@H](O)[C@@H](CO)O2)cc1F [Floxuridine] | 96.5%
O=C(c1ccc(OCCN2CCCCC2)cc1)c1c(-c2ccc(O)cc2)sc2cc(O)ccc12 [Raloxifene] | 77.5%
COc1c(C)cnc(Cn2cnc3c(Cl)nc(N)nc32)c1C [BIIB021] | 87.8%

same assay, conditions: 100 nM; incubation time: 72 h

SMILES | normalised viability
CC(C)C[C@H](NC(=O)[C@H](Cc1ccccc1)NC(=O)c1cnccn1)B(O)O [Bortezomib] | 6.67%
Cn1cnc2c(F)c(Nc3ccc(Br)cc3F)c(C(=O)NOCCO)cc21 [MEK-162] | 110%

same assay, conditions: 1000 nM; incubation time: 72 h

SMILES | normalised viability
O=c1[nH]c(=O)n([C@H]2C[C@H](O)[C@@H](CO)O2)cc1F [Floxuridine] | 67.1%
CC(C)C[C@H](NC(=O)[C@H](Cc1ccccc1)NC(=O)c1cnccn1)B(O)O [Bortezomib] | 3.15%
O=C(c1ccc(OCCN2CCCCC2)cc1)c1c(-c2ccc(O)cc2)sc2cc(O)ccc12 [Raloxifene] | 101%
Cn1cnc2c(F)c(Nc3ccc(Br)cc3F)c(C(=O)NOCCO)cc21 [MEK-162] | 108%
COc1c(C)cnc(Cn2cnc3c(Cl)nc(N)nc32)c1C [BIIB021] | 36.5%

same assay, conditions: 10000 nM; incubation time: 72 h

SMILES | normalised viability
O=c1[nH]c(=O)n([C@H]2C[C@H](O)[C@@H](CO)O2)cc1F [Floxuridine] | 44.8%
O=C(c1ccc(OCCN2CCCCC2)cc1)c1c(-c2ccc(O)cc2)sc2cc(O)ccc12 [Raloxifene] | 56.8%
COc1c(C)cnc(Cn2cnc3c(Cl)nc(N)nc32)c1C [BIIB021] | 31.1%

system: MDA-MB-231; assay: as above; settings: 1 nM; incubation time: 72 h
In short: as §1

SMILES | normalised viability
CC(C)C[C@H](NC(=O)[C@H](Cc1ccccc1)NC(=O)c1cnccn1)B(O)O [Bortezomib] | 92.4%
Cn1cnc2c(F)c(Nc3ccc(Br)cc3F)c(C(=O)NOCCO)cc21 [MEK-162] | 104%

same assay, conditions: 10 nM; incubation time: 72 h

SMILES | normalised viability
O=c1[nH]c(=O)n([C@H]2C[C@H](O)[C@@H](CO)O2)cc1F [Floxuridine] | 106%
O=C(c1ccc(OCCN2CCCCC2)cc1)c1c(-c2ccc(O)cc2)sc2cc(O)ccc12 [Raloxifene] | 85.3%
COc1c(C)cnc(Cn2cnc3c(Cl)nc(N)nc32)c1C [BIIB021] | 86.1%

same assay, conditions: 100 nM; incubation time: 72 h

SMILES | normalised viability
CC(C)C[C@H](NC(=O)[C@H](Cc1ccccc1)NC(=O)c1cnccn1)B(O)O [Bortezomib] | 2.05%
Cn1cnc2c(F)c(Nc3ccc(Br)cc3F)c(C(=O)NOCCO)cc21 [MEK-162] | 80.3%

same assay, conditions: 1000 nM; incubation time: 72 h

SMILES | normalised viability
O=c1[nH]c(=O)n([C@H]2C[C@H](O)[C@@H](CO)O2)cc1F [Floxuridine] | 58.1%
CC(C)C[C@H](NC(=O)[C@H](Cc1ccccc1)NC(=O)c1cnccn1)B(O)O [Bortezomib] | 0.27%
O=C(c1ccc(OCCN2CCCCC2)cc1)c1c(-c2ccc(O)cc2)sc2cc(O)ccc12 [Raloxifene] | 89.3%
Cn1cnc2c(F)c(Nc3ccc(Br)cc3F)c(C(=O)NOCCO)cc21 [MEK-162] | 47%
COc1c(C)cnc(Cn2cnc3c(Cl)nc(N)nc32)c1C [BIIB021] | 34.1%

same assay, conditions: 10000 nM; incubation time: 72 h

SMILES | normalised viability
O=c1[nH]c(=O)n([C@H]2C[C@H](O)[C@@H](CO)O2)cc1F [Floxuridine] | 47.2%
O=C(c1ccc(OCCN2CCCCC2)cc1)c1c(-c2ccc(O)cc2)sc2cc(O)ccc12 [Raloxifene] | 102%
COc1c(C)cnc(Cn2cnc3c(Cl)nc(N)nc32)c1C [BIIB021] | 23.8%

system: MDA-MB-468; assay: as above; settings: 1 nM; incubation time: 72 h
In short: as §1

SMILES | normalised viability
CC(C)C[C@H](NC(=O)[C@H](Cc1ccccc1)NC(=O)c1cnccn1)B(O)O [Bortezomib] | 88.3%
Cn1cnc2c(F)c(Nc3ccc(Br)cc3F)c(C(=O)NOCCO)cc21 [MEK-162] | 107%

same assay, conditions: 10 nM; incubation time: 72 h

SMILES | normalised viability
O=c1[nH]c(=O)n([C@H]2C[C@H](O)[C@@H](CO)O2)cc1F [Floxuridine] | 95.5%
O=C(c1ccc(OCCN2CCCCC2)cc1)c1c(-c2ccc(O)cc2)sc2cc(O)ccc12 [Raloxifene] | 98.6%
COc1c(C)cnc(Cn2cnc3c(Cl)nc(N)nc32)c1C [BIIB021] | 93.5%
